Results published in patent publication US11312718B2, “Formulations of (S)-3-(1-(9H-purin-6-ylamino)ethyl)-8-chloro-2-phenylisoquinolin-1(2H)-one” (Infinity Pharmaceuticals, Inc., priority 2011, dated 2022).
Each block holds one molecule with its values, some of them ahead of it.

Legend:
[1] = Dynamic vapor sorption (DVS) / moisture sorption analysis; assay type: physicochemical
Procedure: Compounds and polymorphs provided herein can be characterized by moisture sorption analysis. This analysis was performed using a Hiden IGAsorp Moisture Sorption instrument. Moisture sorption experiments were carried out at about 25° C. by performing an adsorption scan from about 40% to about 90% RH in steps of about 10% RH and a desorption scan from about […] to about 0% RH in steps of about −10% RH. A second adsorption scan from about 10% to about 40% RH was performed to determine the moisture uptake from a drying state to the starting humidity. Samples were allowed to equilibrate for about four hours at each point or until an asymptotic weight was reached. After the isothermal sorption scan, samples were dried for about one hour at elevated temperature (about 60° C.) to obtain the dry weight. XRPD analysis on the material following moisture sorption was performed to determine the solid form.
Dynamic vapor sorption (DVS) analysis was performed on polymorph Forms A, B, C, D, and E using the DVS instrument and parameters as described above. […] Hysteresis indicative of hemi-hydrate formation was observed.

[2] = Grinding stability (mortar and pestle); assay type: physicochemical; details: by hand, 2 and 5 min, XRPD
Procedure: Forms A, C, D, and E were subjected to grinding experiments performed using a mortar and pestle by hand. Samples were lightly grounded for 2 minutes then analyzed by XRPD. Material was then returned to the mortar and pestle and grounded for an additional 3 minutes, for a total of 5 minutes of grinding, and re-analyzed by XRPD.

[3] = 1 week
Procedure: (§1) Forms A, B, C, D, and E were held at 60° C. for 10 days followed by analysis by XRPD. In each case, 8 mL vials were charged with approximately 20 mg of material, with the exception of Form B for which 10 mg of material was charged. Samples equilibrated in an oven for 10 days.

[4] = Thermal stability (60° C.); details: held at 60° C. for 10 days
Procedure: as §1

B6.Sle1z.Sle3z model = details: cited from earlier work
[5] = tested on: leukemic cells from early passage p190 transduced cultures; details: at about 70 mg/kg twice daily; cited from earlier work

- DVS ([1]; @ 60% RH): 1.9% @ 60% RH
- DVS ([1]; @ 90% RH): 2.2% @ 90% RH
- hygroscopicity ([1]; DVS): slightly hygroscopic
- moisture uptake at 60% RH ([1]; DVS, about 25° C., 60% RH): 1.9 wt %
- moisture uptake at 90% RH ([1]; DVS, about 25° C., 90% RH): 2.2 wt %
- Grinding (mortar & pestle) [2]: amorphous
- Thermal stability (60° C.) [3]: stable after 1
- polymorph Form changes by XRPD [4]: No polymorph Form changes were observed
Compound: C[C@H](Nc1ncnc2[nH]cnc12)c1cc2cccc(Cl)c2c(=O)n1-c1ccccc1 [Form E, (S)-3-(1-(9H-purin-6-ylamino)ethyl)-8-chloro-2-phenylisoquinolin-1(2H)-one]

Compound: CO[C@H]1C[C@@H]2CC[C@@H](C)[C@@](O)(O2)C(=O)C(=O)N2CCCC[C@H]2C(=O)O[C@H]([C@H](C)C[C@@H]2CC[C@@H](OCCO)[C@H](OC)C2)CC(=O)[C@H](C)/C=C(\C)[C@@H](O)[C@@H](OC)C(=O)[C@H](C)C[C@H](C)/C=C/C=C/C=C/1C [RAD001]
- lupus symptoms (B6.Sle1z.Sle3z model): ameliorate lupus symptoms

Compound: Cc1ccc(NC(=O)c2ccc(CN3CCN(C)CC3)cc2)cc1Nc1nccc(-c2cccnc2)n1 [imatinib]
- leukemogenesis [5]: delay but not cure leukemogenesis
